Laboratory results reported in patent US7935688B2, “Vitamin D-like compound” (Chugai Seiyaku Kabushiki Kaisha, priority 2005, dated 2011).

What was measured:
[1] = system: osteocalcin production in MG-63 cells; experiment: Osteocalcin production in MG-63 cells (Gla-type Osteocalcin EIA); assay type: cell-based, human; conditions: (EC50 value of 1,25(OH)2D3/EC50 value of each compound)×100; eight hours exposure, then four days culture
Method: mg-63 was obtained from Institute for Fermentation, Osaka as a human osteoblast-like cell line. MG-63 cells were maintained and cultured in a MEM medium (Minimum essential medium; pH 7.0; Invitrogen Corporation, Carlsbad, Calif., USA) containing 5% fetal bovine serum (FBS; HyClone, Logan, Utah, USA).
MG-63 cells were adjusted to a density of 4.0×10^4 cells/mL, plated in a 96-well plate at 200 μL per well, and cultured under conditions of 37° C. and 5% carbon dioxide for 24 hours.
After removing the medium, MEM containing 5% charcoal/dextran treated FBS (DCC-FBS; Hyclone, Logan, Utah, USA) was added at 180 μL/well. The test substance (1.0×10^−3 mol/L) was diluted with dimethyl sulfoxide (DMSO) to 1.0×10^−4 mol/L, 1.0×10^−5 mol/L, 1.0×10^−6 mol/L, 1.0×10^−7 mol/L and 1.0×10^−8 mol/L. 1,25(OH)2D3 was used as a positive control. Like the test substance, 1,25(OH)2D3 was diluted with DMSO. 0.02 mL of the positive control and the test substance diluted 100-fold with MEM containing 5% DCC-FCS was added to each well of the 96-well plate, so that the final drug concentration was 1.0×10^−6 mol/L to 1.0×10^−11 mol/L. Thereafter, the cells were cultured under conditions of 37° C. and 5% carbon dioxide for eight hours.
After culturing for eight hours, the medium was removed, and MEM containing 5% DCC-FBS was added at 0.2 mL per well. The cells were cultured under conditions of 37° C. and 5% carbon dioxide for four days, and the medium was recovered. The medium was stored at −80° C. until osteocalcin measurement.
The Gla-type Osteocalcin EIA kit (Takara Bio Inc., Tokyo, Japan) was used for measurement of osteocalcin. Measurement was carried out using a microplate reader (Model 3550, Bio-Rad Laboratories, Inc., Hercules, Calif., USA) at a wavelength of 450 nm, and the results were analyzed by Microplate Manager III (Bio-Rad Laboratories, Inc., ver. 1.57).
The median effective concentration (EC50) was calculated from the osteocalcin concentration. Potency of induction of each compound was calculated as a ratio of EC50 of 1,25(OH)2D3 to EC50 of the compound. The relation between diseases and induction of osteocalcin production is described in Lancet (1984 May 19), 1 (8386), 1091-3; Steroids 66, 159-170 (2001); and Journal of Steroid Biochemistry & Molecular Biology 89-90, 269-271 (2004), for example.
The osteocalcin production level in MG-63 cells (%) was calculated by the formula: (EC50 value of 1,25(OH)2D3/EC50 value of each compound)×100.

[2] = system: Sprague-Dawley female rats subjected to ovariectomy (OVX); experiment: Effect of increasing bone density in ovariectomized rats (dual X-ray bone densitometry); assay type: in vivo, rat; conditions: forcibly orally, five times per week, pathological control group (vehicle) = 100%
Method: The compound of the present invention was adjusted to each concentration using middle chain triglyceride (MCT) as a base. The adjusted solution was stored under shading at 4° C. until use.
Seven-week-old Sprague-Dawley (Crj:CD(SD)) female rats (Charles River Laboratories Japan, Inc.) were preliminarily bred for one week in an environment at a room temperature of 20 to 26° C., at a humidity of 35 to 75% and with an air change of 10 times or more per hour. The rats were allowed to freely take tap water and CE-2 (CLEA Japan, Inc.) as a feed.
After preliminary breeding, the animals were subjected to ovariectomy (OVX) and divided into groups (eight animals per group) on the day after the operation. Only MCT as a base was forcibly orally administered to the sham operation group (sham) and the pathological control group (OVX-vehicle) at a dose of 1 mL/kg (five times per week). The compound of the present invention was also forcibly orally administered at the same dose five times per week.
The animals were bred in a metabolic cage and urine was collected for 24 hours after the final administration. Blood was collected from the abdominal aorta under ether anesthesia for 24 hours after the final administration. The blood was allowed to stand at room temperature for 30 minutes and then centrifuged to provide serum. The femur and lumbar spine were collected and stored in 70% ethanol until bone density measurement.
The bone density of the femur and the second to fifth lumbar spines of the isolated lumbar spines was measured by the dual X-ray bone densitometry system DCS-600-EX (ALOKA). The distal femur bone density was measured for three […] regions out of 10 regions of the femur equally divided in length. The bone density in each site was described based on the bone density of the pathological control group (vehicle group) in each experiment as 100%.
The effects of the compounds of the present invention on the lumbar spine bone density are shown in Table 2 as an example of the obtained results.

| SMILES | Osteocalcin production level in MG-63 cells (%) [1] | Lumbar spine bone density (%) ([2]; 0.01 μg/kg) | Lumbar spine bone density (%) ([2]; 0.02 μg/kg) | Lumbar spine bone density (%) ([2]; 0.075 μg/kg) | Lumbar spine bone density (%) ([2]; 0.15 μg/kg) |
| --- | --- | --- | --- | --- | --- |
| CCC(O)(/C=C/c1ccc(C(CC)(CC)c2ccc(-c3ccc(CC(=O)O)cn3)c(C)c2)cc1C)CC [Example 81, [6-(4-{1-ethyl-1-[4-((E)-3-ethyl-3-hydroxy-1-pentenyl)-3-methyl-phenyl]-propyl}-2-methyl-phenyl)-pyridin-3-yl]-acetic Acid] | 652% | 115.66% | 115.66% | – | – |
| CCC(CC)(c1ccc(-c2cncc(CC(=O)O)c2)cc1)c1ccc(CCC2(O)CCCCC2)c(C)c1 [Example 149, {5-[4-(1-ethyl-1-{4-[2-(1-hydroxy-cyclohexyl)-ethyl]-3-methyl-phenyl}-propyl)-phenyl]-pyridin-3-yl}-acetic Acid] | 1305% | – | – | 111.40% | 116.00% |
